Test results taken from US20240148821A1, “PHARMACEUTICAL USE OF CYCLIC PEPTIDE COMPOUND” (CHUGAI SEIYAKU KABUSHIKI KAISHA, priority 2021, published 2024).
Numbered stars: 1 amine (or outer) side, 2 acyl side, 3 side chain; on linkers, the order of the positions; unused ones are H or OH. Bridge positions count the residues as written; N and C are the ends. Square brackets hold non-standard residues; d marks the D form. Peptide text beside a SMILES is read from it. * marks the point of attachment. NMeAbu(3,3-F2-piperidino) = CN[C@@H](CCN1CCCC(F)(F)C1)C(=O)O; hPhe(3-Cl-4-CF3) = N[C@@H](CCc1ccc(C(F)(F)F)c(Cl)c1)C(=O)O; NMePhe(4-CF3) = CN[C@@H](Cc1ccc(C(F)(F)F)cc1)C(=O)O; Phe(2-OCF3) = N[C@@H](Cc1ccccc1OC(F)(F)F)C(=O)O; NMeAbu(4,4,4-F3) = CN[C@@H](CC(F)(F)F)C(=O)O; NMePhe(4-Me) = CN[C@@H](Cc1ccc(C)cc1)C(=O)O; NMeAla(cPent) = CN[C@@H](CC1CCCC1)C(=O)O; NMeGly(cPent) = CN[C@H](C(=O)O)C1CCCC1; Phe(3-I) = N[C@@H](Cc1cccc(I)c1)C(=O)O; X26 = CC(C)=CC[C@H](N[*:1])C(=O)[*:2]; NMeCha = CN[C@@H](CC1CCCCC1)C(=O)O; Hyp = O=C(O)[C@@H]1C[C@@H](O)CN1; NEtLeu = CCN[C@@H](CC(C)C)C(=O)O; NMeChg = CN[C@H](C(=O)O)C1CCCCC1; NMeI = CC[C@H](C)[C@H](NC)C(=O)O; NMeD = CN[C@@H](CC(=O)O)C(=O)O; NMeL = CN[C@@H](CC(C)C)C(=O)O; NMeV = CN[C@H](C(=O)O)C(C)C; NMeA = CN[C@@H](C)C(=O)O; NMeAib = CNC(C)(C)C(=O)O; Piperidide = C1CCN(*)CC1; Pyrrolidide = C1CCN(*)C1; Ac5c = NC1(C(=O)O)CCCC1; Aze = O=C(O)[C@@H]1CCN1; Sar = CNCC(=O)O

System: Human pancreatic cancer cell line AsPC-1 (G12D mutation Kras)
Experiment: AsPC-1 cell growth inhibition (AsPC-1 CGI)
Type: cell-based
Details: read-out: AsPC-1 cell growth inhibition, 50% growth inhibitory concentration (IC50 value); 96 hours, CellTiter-Glo, values classified in ranges
Experimental: Test compounds were serially dilated with dimethyl sulfoxide, and 200 nL was then dispensed to a U-bottom 96-well plate using Labcyte Echo. […] The cell suspension was dispensed to a. plate containing a test compound at 100 μL per well and incubated at 37° C. in a 5% carbon dioxide gas incubator. 96 hours later, 80 μL of CellTiter-Glo (Promega) was added to each well and fluorescence was measured.

| SMILES | IC50 [nM] |
| --- | --- |
| CC[C@H](C)[C@@H]1NC(=O)[C@H](C)N(C)C(=O)C[C@@H](C(=O)N2CCCCC2)N(C)C(=O)[C@H](C(C)C)N(C)C(=O)C2(CCCC2)NC(=O)[C@@H]2CCCN2C(=O)[C@H](CCc2ccc(C(F)(F)F)c(Cl)c2)NC(=O)CN(C)C(=O)[C@H](CC2CCCCC2)N(C)C(=O)[C@@H]2CCCN2C(=O)CN(C)C1=O [Compound 1121] ([NMeA]I[Sar]P[NMeCha][Sar][hPhe(3-Cl-4-CF3)]P[Ac5c][NMeV][NMeD]-Piperidide; lactam N-11) | > 500 |
| CC[C@H](C)[C@@H]1NC(=O)[C@H](CC(C)C)N(C)C(=O)C[C@@H](C(=O)N2CCCCC2)N(C)C(=O)[C@H](CC(C)C)NC(=O)C(C)(C)N(C)C(=O)[C@H](Cc2ccccc2OC(F)(F)F)NC(=O)[C@H](Cc2cccc(I)c2)NC(=O)CN(C)C(=O)[C@H](Cc2ccc(C)cc2)N(C)C(=O)[C@@H]2CCN2C(=O)[C@H](C)N(C)C1=O [Compound 1129] ([NMeL]I[NMeA][Aze][NMePhe(4-Me)][Sar][Phe(3-I)][Phe(2-OCF3)][NMeAib]L[NMeD]-Piperidide; lactam N-11) | > 500 |
| CC(C)=CC[C@@H]1NC(=O)[C@H](CC(C)C)N(C)C(=O)C[C@@H](C(=O)N2CCCCC2)N(C)C(=O)[C@H](C2CCCCC2)N(C)C(=O)C2(CCCC2)NC(=O)[C@@H]2CCCN2C(=O)[C@H](CCc2ccc(C(F)(F)F)c(Cl)c2)NC(=O)CN(C)C(=O)[C@H](CC2CCCCC2)N(C)C(=O)CN(C)C(=O)CN(C)C1=O [Compound 1134] ([NMeL][X26][Sar][Sar][NMeCha][Sar][hPhe(3-Cl-4-CF3)]P[Ac5c][NMeChg][NMeD]-Piperidide; lactam N-11) | > 500 |
| CC[C@H](C)[C@@H]1NC(=O)[C@H](CC(C)C)N(C)C(=O)C[C@@H](C(=O)N(C)C)N(C)C(=O)[C@H]([C@@H](C)CC)N(C)C(=O)[C@H](C)NC(=O)[C@H](CCN2CCCC(F)(F)C2)N(C)C(=O)[C@H](CCc2ccc(C(F)(F)F)c(Cl)c2)NC(=O)CN(C)C(=O)[C@H](Cc2ccc(C)cc2)N(C)C(=O)[C@@H]2CCN2C(=O)[C@H](C)N(C)C1=O [Compound 1135] ([NMeL]I[NMeA][Aze][NMePhe(4-Me)][Sar][hPhe(3-Cl-4-CF3)][NMeAbu(3,3-F2-piperidino)]A[NMeI][NMeD]-NMe2; lactam N-11) | > 500 |
| CC[C@H](C)[C@@H]1NC(=O)[C@H](CC(C)C)N(C)C(=O)C[C@@H](C(=O)N2CCCCC2)N(C)C(=O)[C@H](C2CCCCC2)N(C)C(=O)[C@@H](C(C)C)NC(=O)[C@@H]2CCCN2C(=O)[C@H](CCc2ccc(C(F)(F)F)c(Cl)c2)NC(=O)CN(C)C(=O)[C@H](CC2CCCCC2)N(C)C(=O)CN(C)C(=O)CN(C)C1=O [Compound 1138] ([NMeL]I[Sar][Sar][NMeCha][Sar][hPhe(3-Cl-4-CF3)]P[dV][NMeChg][NMeD]-Piperidide; lactam N-11) | > 500 |
| CCO[C@@H]1C[C@H]2C(=O)NC3(CCCC3)C(=O)N(C)[C@@H](C3CCCCC3)C(=O)N(C)[C@H](C(=O)N3CCCC3)CC(=O)N(C)[C@@H](CC(F)(F)F)C(=O)N[C@@H]([C@@H](C)CC)C(=O)N(C)CC(=O)N(C)CC(=O)N(C)[C@@H](Cc3ccc(C(F)(F)F)cc3)C(=O)N(C)CC(=O)N[C@@H](CCc3ccc(C(F)(F)F)c(Cl)c3)C(=O)N2C1 [Compound 1139] ([NMeAbu(4,4,4-F3)]I[Sar][Sar][NMePhe(4-CF3)][Sar][hPhe(3-Cl-4-CF3)][Hyp](Et)[Ac5c][NMeChg][NMeD]-Pyrrolidide; lactam N-11) | ≤ 20 |
| CC[C@H](C)[C@@H]1NC(=O)[C@H](CC2CCCC2)N(C)C(=O)C[C@@H](C(=O)N(C)C)N(C)C(=O)[C@H]([C@@H](C)CC)N(C)C(=O)C2(CCCC2)NC(=O)[C@@H]2CCCN2C(=O)[C@H](CCc2ccc(C(F)(F)F)c(Cl)c2)NC(=O)CN(C)C(=O)[C@H](Cc2ccc(C)cc2)N(C)C(=O)[C@@H]2CCN2C(=O)[C@H](C)NC1=O [Compound 1141] ([NMeAla(cPent)]IA[Aze][NMePhe(4-Me)][Sar][hPhe(3-Cl-4-CF3)]P[Ac5c][NMeI][NMeD]-NMe2; lactam N-11) | ≤ 20 |
| CC[C@H](C)[C@@H]1NC(=O)[C@H](CC(C)C)N(CC)C(=O)C[C@@H](C(=O)N(C)C)N(C)C(=O)[C@H](C2CCCC2)N(C)C(=O)C2(CCCC2)NC(=O)[C@@H]2CCCN2C(=O)[C@H](CCc2ccc(C(F)(F)F)c(Cl)c2)NC(=O)CN(C)C(=O)[C@H](Cc2ccc(C)cc2)N(C)C(=O)[C@@H]2CCN2C(=O)[C@H](C)N(C)C1=O [Compound 1148] ([NEtLeu]I[NMeA][Aze][NMePhe(4-Me)][Sar][hPhe(3-Cl-4-CF3)]P[Ac5c][NMeGly(cPent)][NMeD]-NMe2; lactam N-11) | ≤ 20 |
| CC[C@H](C)[C@@H]1NC(=O)[C@H](CC(C)C)N(C)C(=O)C[C@@H](C(=O)N2CCCCC2)N(C)C(=O)[C@H](C2CCCCC2)N(C)C(=O)[C@H](C(C)C)NC(=O)[C@@H]2CCCN2C(=O)[C@H](CCc2ccc(C(F)(F)F)c(Cl)c2)NC(=O)CN(C)C(=O)[C@H](CC2CCCCC2)N(C)C(=O)CN(C)C(=O)CN(C)C1=O [Compound 1157] ([NMeL]I[Sar][Sar][NMeCha][Sar][hPhe(3-Cl-4-CF3)]PV[NMeChg][NMeD]-Piperidide; lactam N-11) | > 500 |
